Reference: publication PMC9276676, “Difluoromethylornithine (DFMO) and AMXT 1501 inhibit capsule biosynthesis in pneumococci” (Scientific Reports, 2022)
Converted amounts (≈) assume the structure as drawn. Read-outs that look alike come from different tables or passages of the source.

Key:
[1] = tested on: S. pneumoniae serotype 2 (D39); experiment: DFMO susceptibility and growth in THY (OD600, MIC); assay type: cell-based, Streptococcus pneumoniae; conditions: Streptococcus pneumoniae
Description: S. pneumoniae serotypes 4 (TIGR4), 2 (D39), 19F (EF3030) and 3 (WU2) were cultured in Todd Hewitt broth supplemented with yeast extract (THY). Supplementation with DFMO ranging from 1.1 to 549 mM was carried out in triplicate in a 96-well plate and incubated at 37 °C and 5% CO2 in a Cytation™ 5 cell imaging multi-mode reader (BioTek, Winooski, VT). The change in optical density at 600 nm (OD600) was measured every hour for 24 h and used to determine the minimum inhibitory concentration (MIC) of DFMO. The optical density data was analyzed using GrowthRates 4.0 software. To determine whether DFMO at sub-MIC is bacteriostatic or lethal to pneumococcal cells, all strains were cultured in the presence or absence of 1/2 MIC DFMO. OD600 was measured every hour and CFU were enumerated on a blood agar plate (BAP) every 2 h over an 8 h incubation period.

D39 (serotype 2) capsule = experiment: Total capsular polysaccharide (CPS) immunoblot with densitometry; assay type: cell-based, Streptococcus pneumoniae; conditions: D39; for total CPS (capsule) by immunoblot: DFMO 1/8 MIC 34 mM, agmatine 1/4 MIC 20 mM, AMXT 1501 1/2 MIC 7.4 µM, alone or with agmatine
Description: (§1) S. pneumoniae strains were cultured with DFMO and AMXT 1501 at varying final concentrations of 1/2, 1/4, and 1/8 MIC to OD600 0.2–0.3 either individually or together to estimate any additive or synergistic effects. Capsular polysaccharides (CPS) were extracted and quantified in triplicate, as described previously[26] with slight modification. Briefly, CPS was extracted in a lysis buffer (4% deoxycholate, 50 µg/mL DNAse I and 50 µg/mL RNAse A) at 37 °C for 10 min and centrifuged at 18,000×g for 10 min. The supernatant (2 µL) was spotted on a 0.2-µm-pore-size nitrocellulose membrane (Thermo Fisher Scientific, Waltham, MA, USA) and oven dried at 60 °C for 15 min. The membranes were blocked and incubated with different types of antisera for capsule detection: antisera type- 4 (for TIGR4), 2 (for D39), polyclonal (for EF3030) and 3 (for WU2) (Cedarlane, Burlington, NC, USA). A conjugated polyclonal goat anti-rabbit IgG-HRP (Agilent Technologies, Santa Clara, CA, USA) was used for enhanced chemiluminescence (ECL) detection in all the strains (Thermo Fisher Scientific, Waltham, MA, USA) and scanned using a ChemiDoc XRS+ with Image Lab software (Bio-Rad, Hercules, CA, USA). Densitometry analysis of the immunoblot was done with NIH ImageJ software.
(§2) We determined the impact of varying concentrations of DFMO (1/8 to 1/2 MIC) on CPS in all serotypes (2, 4, 19F, and 3) used in this study. […] D39 was treated with 1/8 MIC DFMO alone, 1/4 MIC agmatine (Agm) alone, a combination of 1/8 MIC DFMO and 1/4 MIC Agm, and a control without DFMO or Agm. CPS was extracted as described in the previous section and immunoblot analysis with type 2 antisera was performed to detect CPS semi-quantitatively.

[2] = tested on: EF3030 (serotype 19F) capsule; experiment: as above; assay type: cell-based, Streptococcus pneumoniae; conditions: serotype 19F; AMXT 1501 at 1/2 MIC
Description: as §1, §2

[3] = tested on: TIGR4 (serotype 4) capsule; experiment: as above; assay type: cell-based, Streptococcus pneumoniae; conditions: serotype 4; AMXT 1501 at 1/2 MIC
Description: as §1, §2

WU2 (serotype 3) capsule = experiment: as above; assay type: cell-based, Streptococcus pneumoniae; conditions: serotype 3; AMXT 1501 at 1/2 MIC
Description: as §1, §2

S. pneumoniae D39 = assay type: cell-based, Streptococcus pneumoniae
Description: This was done to directly compare possible changes in intracellular concentrations of polyamines and capsule precursors as a result of DFMO inhibition of polyamine synthesis to the earlier report where polyamine synthesis was affected via gene deletion in TIGR4[24]. […] Cells were harvested (5000×g, 10 min, 4 °C), re-suspended in extraction solvent [40% acetonitrile, 40% methanol, 20% water with formic acid (0.1 M)] and transferred to bead-beater tubes (MP Biomedicals, Irvine, CA, USA). Cells were lysed using a FastPrep-24™ Classic (45 s, 6.5 m/s, RT, 3 times) (MP Biomedicals, Irvine, CA, USA) and incubated on ice (5 min after each spin). TIGR4 lysates were clarified (6000×g, 5 min, 4 °C), and metabolite differentiation and detection were performed using published protocols[28],[29]. Liquid chromatography-mass spectrometry-based (LC–MS) metabolomic analysis was performed with an Agilent Accurate Mass 6230 TOF coupled with an Agilent 1290 LC system using a Cogent Diamond Hydride Type C column. Briefly, the mobile phase consisted of the following: solvent A (ddH2O with 0.2% formic acid) and solvent B (acetonitrile with 0.2% formic acid). The gradient used was as follows: 0–2 min, 85% B; 3–5 min, 80% B; 6–7 min, 75% B; 8–9 min, 70% B; 10–11.1 min, 50% B; 11.1–14 min 20% B; 14.1–24 min 5% B followed by a 10 min re-equilibration period at 85% B at a flow rate of 0.4 mL/min. Mass axis dynamics was calibrated by continuous infusion of a reference mass solution using an isocratic pump. […] Metabolite identities were searched for using a mass tolerance of < 0.005 Da. Metabolite concentrations from the 5 biological replicates were normalized to biomass based on measurement of residual peptide content in individual samples using the Pierce BCA Protein Assay kit (Thermo Fisher Scientific, Waltham, MA, USA). Data were analyzed using Profinder B.07.00 software (Agilent Technologies, Santa Clara, CA, USA). Extracted molecular features detected in the mass analyzer were identified using accurate mass values and used to generate empirical molecular formulae using an in-house metabolite database that included known intermediates, amino acid precursors and polyamines and their derivatives. Statistical analysis of metabolite peak intensity data was performed using MetaboAnalyst 4.0[30]. Data were normalized (quantile), log transformed and significant fold change between WT and DFMO-treated WT were identified by Student’s t-test (p ≤ 0.05).
To measure the polyamines, glucose and glucuronic acid in D39, TSQ Quantum Access triple-quadrupole tandem mass spectrometer (Thermo Fisher Scientific, Waltham, MA, USA) equipped with acquity UPLC system (Waters, Milford, MA, USA) was operated in positive and negative ion mode. Chromatographic separation was performed on Cogent Diamond Hydride HPLC column (2.1 mm × 150 mm, 4 μm) coupled with Congent Diamond Hydride HPLC Guard column (2.0 mm × 10 mm, 4 μm). The flow rate was 500 µL/min, the sample injection volume was 10 µL, and the column temperature was at 40 °C. The mobile phase A was composed of water with 0.1% v/v formic acid, and mobile phase B was composed of acetonitrile with 0.1% v/v formic acid. The gradient condition was 0 min (5% A, 95% B), 1 min (5% A, 95% B), 4.0 min (30% A, 70% B), 6 min (95% A, 5% B), 6.5 min (95% A, 5% B), 7 min (5% A, 95% B), and 10 min (5% A, 95%B). The total run time was 10 min, and the column eluate directed into the mass spectrometer using an electrospray ionization interface in positive and negative modes. The MS conditions were set as follow: spray voltage = 3500 V, vaporizer temperature = 350 °C, sheath gas = 25 psi, auxiliary gas = 10 psi, and capillary temperature = 350 °C. Samples were run in selected reaction monitoring (SRM) mode, and the optimized MS/MS parameters for ionization are given in Table 1.

[4] = molecular target: T1, SP_0916 (arginine decarboxylase, ADC) (Streptococcus pneumoniae, UniProt A0A0H2UPK4); conditions: Km of the enzyme for the decarboxylase substrate; rows named by product; previously reported ref 18; cited from earlier work
[5] = molecular target: T1, SP_0916 (arginine decarboxylase, ADC); experiment: Inhibition of decarboxylase activities of recombinant SP_0916 (LC-MS); assay type: biochemical; conditions: read-out: DFMA IC50
From the text: We determined the impact of DFMO (ODC/ADC inhibitor) and α-difluoromethylarginine (DFMA, an ADC inhibitor) on the decarboxylase activities of SP_0916. BL21(DE3) cells expressing recombinant His tag SP_0916 were lysed with B-PER reagent buffer (Thermo Fisher Scientific, Waltham, MA, USA), lysate separated by loading unto HisPur Cobalt Spin Column (Thermo Fisher Scientific, Waltham, MA, USA), desalted using Sephadex G-25 PD-10 column (GE Healthcare, Chicago, IL, USA), and protein concentration estimated using the Pierce BCA Protein Assay kit (Thermo Fisher Scientific, Waltham, MA, USA).
SP_0916-encoded protein (0.926 µmol L^−1) was mixed with 10 mM substrate (arginine, lysine or ornithine) in the reaction mixture (500 µL reaction volume, 50 mM Tris–HCl, pH 8.0) that contains 2.5 mM MgSO4 and 0.6 mM PLP. DFMO was diluted in water to 3–900 mM and added to the reaction mixture after 5 min preincubation at 37 °C in the dark. DFMA stock was made in a similar manner but was diluted in water to 0.3–1000 µM. The enzyme and inhibitor were incubated at 37 °C for 15 min in the dark and the reaction terminated with 0.3 M perchloric acid. After incubation on ice for 15 min, the samples were neutralized with 25 µL of 10 N KOH and extracted with 1 mL of 1-butanol. The organic layer was dried under nitrogen gas and reconstituted with 100 µL of water containing Spermidine-d8 and Glucose-d7 as an internal standard. Analysis of the extracts was performed on a Surveyor LC–MS system. 5 µL of reconstitution was injected to the LC–MS system for detection of the products (agmatine, cadaverine or putrescine). We used internal standards to normalize and determine the peak intensity (area ratio) for each metabolite detected. Enzyme activity without inhibitor is referred to as a control activity. All experiments were performed in triplicate. The concentration of inhibitor that inhibited 50% of the control activity (IC50 value) was determined by varying the concentration of the indicated DFMO or DFMA and measuring the decarboxylase activity. Sigma Plot v. 12 was used to fit the curve through the points and IC50 values were interpolated from the fitted curve.

[6] = DFMO 34 mM, agmatine 20 mM, AMXT 1501 7.4 µM, p-value in bracket omitted

T1 sequence (A0A0H2UPK4 entry or part of it): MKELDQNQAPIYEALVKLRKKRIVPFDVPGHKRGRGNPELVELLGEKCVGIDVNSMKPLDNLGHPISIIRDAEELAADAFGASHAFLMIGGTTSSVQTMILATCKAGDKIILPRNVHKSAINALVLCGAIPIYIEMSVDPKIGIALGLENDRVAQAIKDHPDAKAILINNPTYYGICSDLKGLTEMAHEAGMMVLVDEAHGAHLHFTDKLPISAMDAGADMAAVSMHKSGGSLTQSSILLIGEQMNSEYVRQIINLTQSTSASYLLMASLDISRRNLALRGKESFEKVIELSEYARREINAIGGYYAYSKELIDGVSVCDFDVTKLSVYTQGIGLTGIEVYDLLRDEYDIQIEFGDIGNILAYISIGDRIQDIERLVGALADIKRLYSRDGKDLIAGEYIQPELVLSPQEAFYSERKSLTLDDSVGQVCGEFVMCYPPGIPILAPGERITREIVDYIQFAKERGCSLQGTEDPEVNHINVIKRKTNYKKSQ

| Compound | total CPS (capsule) by immunoblot (D39 (serotype 2) capsule) | Agmatine, fold change treated D39 /D39 (S. pneumoniae D39; [6]) | Cadaverine, fold change treated D39 /D39 (S. pneumoniae D39; [6]) | Lysine, fold change treated D39 /D39 (S. pneumoniae D39; [6]) | N-acetyl spermidine, fold change treated D39 /D39 (S. pneumoniae D39; [6]) | N-carbamoyl putrescine, fold change treated D39 /D39 (S. pneumoniae D39; [6]) | Ornithine, fold change treated D39 /D39 (S. pneumoniae D39; [6]) | Putrescine, fold change treated D39 /D39 (S. pneumoniae D39; [6]) | Spermidine, fold change treated D39 /D39 (S. pneumoniae D39; [6]) | Spermine, fold change treated D39 /D39 (S. pneumoniae D39; [6]) | Km [4] [µM] | also measured |
| --- | --- | --- | --- | --- | --- | --- | --- | --- | --- | --- | --- | --- |
| CCCCCCCCCCCCCCCC(=O)NCCCC[C@@H](N)C(=O)NCCCNCCCCNCCCN [AMXT 1501] | Loss of capsule | -1.5 (0.006) | -1.2 (4.61E-04) | -0.5 (3.48E-04) | -1.6 (0.022) | -1.8 (0.016) | -0.5 (0.004) | -1.4 (0.001) | -5.5 (0.006) | -0.3 (0.455) | – | MIC ([1]; read-out: 1/2 MIC): 7.4 µM (≈ 4.21 µg/mL); less capsule compared to untreated controls (densitometry of immunoblots) (D39 (serotype 2) capsule; 1/2 MIC AMXT 1501 (7.4 µM)): 61%; impact on CPS [2]: had no impact on CPS; impact on CPS [3]: had no impact on CPS; impact on CPS (WU2 (serotype 3) capsule): had no impact on CPS; intracellular glucose (peak intensity) (S. pneumoniae D39; 1/8 MIC DFMO (34 mM), 1/2 MIC AMXT 1501 (7.4 µM)): increases glucose level; intracellular glucuronic acid (peak intensity) (S. pneumoniae D39; 1/8 MIC DFMO (34 mM), 1/2 MIC AMXT 1501 (7.4 µM), separately or in combination): significantly depleted; Arginine, fold change treated D39 /D39 (S. pneumoniae D39; [6]): -0.1 (0.546) |
| NCCCCN [Putrescine, putrescine] | – | – | – | – | – | – | – | – | – | – | 3550 ± 280 | – |
| NCCCCCN [Cadaverine, cadaverine] | – | – | – | – | – | – | – | – | – | – | 1610 ± 280 | – |
| NCCCCN=C(N)N [Agmatine, agmatine] | does not impact the capsule | 10.2 (1.61E-06) | -0.3 (0.204) | 0.1 (0.048) | 0.8 (0.009) | 9.6 (1.58E-05) | 0.1 (0.149) | 3.3 (0.004) | 0.6 (0.283) | 1.4 (3.30E-04) | 110 ± 20 | MIC ([1]; D39, concentration equal to a quarter of the MIC, read-out: 1/4 MIC): 20000 µM (≈ 2600 µg/mL) |
| N=C(N)NCCC[C@](N)(C(=O)O)C(F)F [DFMA, α-difluoromethylarginine] | – | – | – | – | – | – | – | – | – | – | – | IC50 ([5]; arginine to agmatine, 10 mM substrate, 15 min, 37 °C): 1.1 ± 0.1 µM; IC50 ([5]; lysine to cadaverine, 10 mM substrate, 15 min, 37 °C): 56.6 ± 11.9 µM; IC50 [5]: 40.5 ± 11.6 µM |
